In paper PMC9911388, “Secondary metabolic profiling of Serratia marcescens NP10 reveals new stephensiolides and glucosamine derivatives with bacterial membrane activity” (Scientific Reports, 2023):

Columns and labels:
[1] = UPLC C18 retention time used as measure of hydrophobicity; type: physicochemical; conditions: chromatographic; UPLC-MS of NP10 crude extract; C18 Acquity UPLC HSS T3 1.8 μm, 2.1 × 150 mm; H2O/MeCN with 0.1% formic acid; 40 to 95% B from 0.5 to 15 min; 0.300 mL/min
Procedure: The pooled NP10 crude extract was analysed using UPLC-MS^E at the Liquid Chromatography Mass Spectrometry (LCMS) unit at the Central Analytical Facility (CAF, SU) as outlined in Clements-Decker et al.[4]. Briefly, the UPLC-MS^E was conducted on a Waters Synapt G2 high resolution mass spectrometer linked to an Acquity UPLC™ (Waters Corporation, Milford, USA). Three microlitres (1.00 mg/mL) was separated on an UPLC C18 reverse-phase analytical column (Acquity UPLC® HSS T3, 1.8 μm particle size, 2.1 × 150 mm, Waters Corporation, Dublin, Ireland). The UPLC was conducted with analytical quality H2O containing 0.1% (v/v) formic acid as solution A and MeCN containing 0.1% (v/v) formic acid as solution B at a flow rate of 0.300 mL/min as follows: 60% A from 0 to 0.5 min for loading, linear gradient from 40 to 95% (B) from 0.5 to 15 min and 95 to 40% (B) from 15 to 18 min. The positive mode ESI conditions included: 2.5 kV capillary voltage, 15 V cone voltage, 120 °C source temperature, desolvation temperature of 275 °C, 50 L/h cone gas flow, 650 L/h desolvation gas flow, and m/z range of 200 to 2000 in centroid mode.

[2] = system: S. aureus RN4220; test: Membrane permeability assay: propidium iodide uptake; type: cell-based, Staphylococcus aureus; conditions: PI 10 µg/mL; for PI fluorescence (membrane permeabilisation): ½MIC and MIC, read over 60 min; for Time to two-fold increase in PI fluorescence from the initial reading: at MIC
Procedure: To gain insight into whether stephensiolides and glucosamine derivatives cause increased membrane permeability by forming lesions within the cell membrane of S. aureus, membrane permeability was assessed by monitoring the influx of propidium iodide (PI) and subsequent staining of nucleic acids within the cell, resulting in a fluorescent signal[23],[24]. Fluorescence was measured for 1 h at the MIC and ½MIC of compounds 12, 14, 22 and 26 (Fig. 5a and b).
The membrane permeability capabilities of GluA, GluC, StpK and StpU on S. aureus RN4220 was determined using propidium iodide (PI) (Sigma-Aldrich; St. Louis, MO, USA)[23]. This fluorescent dye can only enter bacterial cells through membrane lesions that are big enough to allow the large molecule (PI has a molecular mass of 668.087 g/mol) to pass through, thus providing an indication of changes in membrane permeability. Briefly, black Greiner CELLSTAR 96-well plates (Merck, Johannesburg, South Africa) were prepared with the selected four compounds at MIC and ½MIC and dried as described in the “Resazurin Broth Microdilution Assay” section. The S. aureus RN4220 strain was prepared in CA-MHB and grown to mid-log phase (OD600 of 0.5–0.6) and diluted to OD600 of 0.3. Propidium iodide (stock concentration of 1 mg/mL in water) was added to the cell suspension to a final concentration of 10 µg/mL and cells were incubated in the dark at room temperature for 10 min. Thereafter, 100 µL of OD adjusted PI cells in mid-log phase was dispensed into each well. Sterile broth and the OD adjusted inoculum with PI were included as a positive control, while sterile broth with PI was included as a negative control. Melittin served as a positive lytic control. Fluorometric readings of the plate were conducted in 2 min intervals over 60 min (readings began 120 s after cells were added to the compounds) using a Tecan Spark at 535 nm excitation wavelength and 617 nm emission wavelength.

[3] = system: S. aureus RN4220; test: Membrane depolarisation assay: DiSC3(5); type: cell-based, Staphylococcus aureus; conditions: for Time to membrane depolarisation / Time to two-fold increase in DiSC3(5) fluorescent signal: at MIC; for Time to membrane depolarisation: DiSC3(5) assay; for Time to two-fold increase in DiSC3(5) fluorescent signal: from the initial reading at 120 s; for DiSC3(5) fluorescence (membrane depolarisation): ½MIC, MIC and two-fold MIC, DiSC3(5) 0.4 µM, read over 12 min
Procedure: To gain insight into whether stephensiolides and glucosamine derivatives cause membrane depolarisation of S. aureus, membrane potential was assessed by monitoring the release of the voltage-sensitive dye 3,3′-dipropylthiadicarbocyanine iodide [DiSC3(5)][25],[26].
The membrane depolarisation capabilities (ability to disrupt membrane potential) of GluA, GluC, StpK and StpU against S. aureus RN4220 was determined using the voltage-sensitive fluorescent probe, 3,3'-dipropylthiadicarbocyanine iodide [DiSC3(5)][25],[39]. Due to the cationic charge and hydrophobic nature of DiSC3(5), the fluorescent dye can penetrate and accumulate in lipid bilayers until Nernstian equilibrium is reached, resulting in the quenching of the fluorescent signal. Once depolarisation occurs (i.e., changes in ion permeability and dissipating transmembrane potential), the dye is rapidly released into the medium and subsequently results in the dequenching of the fluorescent signal. Briefly, black 96 well plates were prepared with the selected four compounds at two-fold MIC, MIC and ½MIC as described in the “Resazurin Broth Microdilution Assay” section. The S. aureus RN4220 strain was prepared in CA-MHB and grown to mid-log phase to obtain an OD600 of 0.5–0.6. Cells were harvested by centrifugation at 3000 rpm for 10 min and resuspended in HEPES buffer (5 mM, pH 7.4, containing 20 mM glucose; 100 mM KCl) to OD600 of 0.05. Thereafter, DiSC3(5) (stock concentration of 400 µM in 100% DMSO) was added to the cell suspension to a final concentration of 0.4 µM and cells were incubated in the dark at room temperature for 60 min. Cell suspensions (100 µL) were then dispensed into the wells of the 96 well plate containing the compounds. Sterile broth and the OD adjusted inoculum with DiSC3(5) were included as a non-fluorescent control, sterile broth with DiSC3(5) was included as a sterility control, and melittin was included as membrane depolarisation control. Fluorometric readings of the plate were conducted in 2 min intervals over 12 min (readings began 120 s after cells were added to the compounds) using a Tecan Spark at 622 nm excitation wavelength and 670 nm emission wavelength.

[4] = system: S. aureus RN4220; test: Resazurin broth microdilution assay (resazurin vitality assay); type: cell-based, Staphylococcus aureus; conditions: for MIC: RP-HPLC purified fractions, MIC = concentration giving ≥ 90% inhibition of growth by fluorometric reading, range 9.8 to 625 µg/mL, 1 h at 37 °C, then resazurin 1.5 h, triplicate, independent duplicate experiments; for IC50: derived from sigmoidal dose-response curves (GraphPad Prism, nonlinear regression, best-fit)
Procedure: The RP-HPLC purified fractions were tested for antibacterial activity using a broth microdilution assay coupled with the metabolic dye, resazurin[20] against S. aureus RN4220. The principle of the assay was based on the rate of reduction of the resazurin dye to resorufin, with survival of the cell equated to an increased conversion of this dye, while a decreased rate of conversion indicates impairment of cellular metabolism and was thus equated to cell death. Briefly, the test strain was inoculated into 10 mL of cation adjusted-Mueller Hinton broth (Sigma-Aldrich) (CA-MHB containing […]) and incubated at 37 °C for 18 to 24 h. Following overnight incubation, the culture was diluted into the respective media and grown to mid-log phase to obtain an optical density (OD) at 0.3 (± 1.4 × 10^8 cells mL^-1) determined at 600 nm.
The RP-HPLC fractions were then diluted in MeCN to a concentration of […]. Fifty microlitres of each fraction was dispensed into the first row of the respective wells of a clear Greiner CELLSTAR® 96-well culture plate (Merck, Johannesburg, South Africa) containing 50 μL of analytical quality H2O, in triplicate. A microdilution was performed in the 96-well culture in 50 μL of sterile analytical quality H2O in each well and the plate was dried at 50 °C for 18 to 24 h to remove the solvent. Thereafter, 10 μL of target cells in mid-log phase at the adjusted OD was dispensed into each well, resulting in a final antimicrobial concentration range of each fraction from 9.8 to 625 µg/mL and incubated for 1 h at 37 °C. After 1 h incubation, 90 μL of phosphate buffered saline (PBS) was added to each well, followed by 10 μL of resazurin [prepared to a stock solution 0.3 mg/mL in PBS; Sigma-Aldrich (St Louis, MO, USA)]. The plate was then incubated at 37 °C for 1.5 h. Finally, fluorometric readings of the plate were conducted using a Tecan Spark 10 M Multimode Microplate Reader at 560 nm excitation wavelength and 590 nm emission wavelength. Sterile broth and the OD adjusted inoculum were included in the assay as a positive control, while sterile broth was included as a negative control. Tests were performed in triplicate, with independent duplicate experiments.
The percentage inhibition was calculated as described by van Rensburg et al.[20]. […] The MIC vs retention time was plotted using Graphpad Prism version 3.01 for Windows [GraphPad Software, San Diego, USA (www.graphpad.com)].

Row | Substance | Rt (retention time, hydrophobicity) [1] [min] | MIC [4] [mg/L] | further results
1 | Stephensiolide M [Compound 2] | 6.45 | – | –
2 | melittin [reference compound] | – | – | PI fluorescence (membrane permeabilisation) [2]: expected increase in fluorescence signal; Time to rapid depolarisation (control) ([3]; depolarisation control): ≤ 240 s
3 | Stephensiolide L [Compound 1] | 5.46 | – | –
4 | Stephensiolide N [Compound 3] | 7.17 | ≥ 300 | –
5 | Stephensiolide R [Compound 9] | 8.79 | ≥ 300 | –
6 | Stephensiolide Q [Compound 8] | 8.09 | ≥ 300 | –
7 | Stephensiolide S [Compound 10] | 8.01 | – | –
8 | Stephensiolide V [Compound 13] | 9.74 | – | –
9 | Stephensiolide K [Compound 14] | 10.37 | 39 | Time to two-fold increase in PI fluorescence from the initial reading [2]: ≤ 36 min; PI fluorescence (membrane permeabilisation) [2]: induced an increase in PI fluorescence over time; IC50 [4]: 25 mg/L; Time to membrane depolarisation [3]: ≤ 12 min; Time to two-fold increase in DiSC3(5) fluorescent signal [3]: 720 s; DiSC3(5) fluorescence (membrane depolarisation) [3]: induced an increase in DiSC3(5) fluorescence at all concentrations tested
10 | Stephensiolide X [Compound 16] | 10.87 | – | –
11 | Stephensiolide T [Compound 11] | 8.92 | ≥ 300 | MIC ([4]; listed as StpT): no activity observed
12 | Stephensiolide W [Compound 15] | 10.31 | – | –
13 | Stephensiolide O [Compound 6] | 6.28 | – | –
14 | Stephensiolide Y [Compound 17] | 11.88 | – | –
15 | Stephensiolide P [Compound 7] | 7.00 | – | –
16 | Stephensiolide U [Compound 12] | 9.57 | 78 | Time to two-fold increase in PI fluorescence from the initial reading [2]: ≤ 28 min; PI fluorescence (membrane permeabilisation) [2]: induced an increase in PI fluorescence over time; IC50 [4]: 53 mg/L; Time to membrane depolarisation [3]: ≤ 8 min; Time to two-fold increase in DiSC3(5) fluorescent signal [3]: 480 s; DiSC3(5) fluorescence (membrane depolarisation) [3]: induced an increase in DiSC3(5) fluorescence at all concentrations tested
